For assay [1], the target named is histone deacetylase activity (HeLa nuclear extract). As to the kind of experiment: HDAC fluorescent activity assay (Fluor de Lys, Biomol). Conditions: IC50 allocated to ranges, read-out: HDAC activity. The format is biochemical. The procedure: The ability of compounds to inhibit histone deacetylase activities was measured using the commercially available HDAC fluorescent activity assay from Biomol. In brief, the Fluor de Lys™ substrate, a lysine with an epsilon-amino acetylation, is incubated with the source of histone deacetylase activity (HeLa nuclear extract) in the presence or absence of inhibitor. Deacetylation of the substrate sensitises the substrate to Fluor de Lys™ developer, which generates a fluorophore. Thus, incubation of the substrate with a source of HDAC activity results in an increase in signal that is diminished in the presence of an HDAC inhibitor.
Data are expressed as a percentage of the control, measured in the absence of inhibitor, with background signal being subtracted from all samples, as follows: % activity=[(S^i−B)/(S^o−B)]×100 where S^i is the signal in the presence of substrate, enzyme and inhibitor, S^o is the signal in the presence of substrate, enzyme and the vehicle in which the inhibitor is dissolved, and B is the background signal measured in the absence of enzyme.
(§1) IC50 values were determined by non-linear regression analysis, after fitting the results of eight data points to the equation for sigmoidal dose response with variable slope (% activity against log concentration of Compound), using Graphpad Prism software.
Histone deacetylase activity from crude nuclear extract derived from HeLa cells was used for screening. The preparation, purchased from 4C (Seneffe, Belgium), was prepared from HeLa cells harvested whilst in exponential growth phase. The nuclear extract was prepared according to the methodology described by J. D. Dignam, Nucl. Acid. Res., 1983, 11, 1475-1489, snap frozen in liquid nitrogen and stored at −80° C. The final buffer composition was 20 mM Hepes, 100 mM KCl, 0.2 mM EDTA, 0.5 mM DTT, 0.2 mM PMSF and 20% (v/v) glycerol.

The next assay relates to HUT78 cells. As to the kind of experiment: HUT cell inhibition assay (WST-1 cell viability). The format is cell-based. Conditions: Homo sapiens; HUT78 cells; IC50 allocated to ranges; read-out: HUT activity. The procedure:
(§2) Cancer cell lines (U937 and HUT) growing in log phase were harvested and seeded at 1000-2000 cells/well (100 μl final volume) into 96-well tissue culture plates. Following 24 h of growth cells were treated with Compound. Plates were then re-incubated for a further 72-96 h before a WST-1 cell viability assay was conducted according to the suppliers (Roche Applied Science) instructions.
(§3) Data were expressed as a percentage inhibition of the control, measured in the absence of inhibitor, as follows: % inhibition=100−[(S^i/S^o)×100] where S^i is the signal in the presence of inhibitor and S^o is the signal in the presence of DMSO.
(§4) Dose response curves were generated from 8 concentrations (top final concentration 10 μM, with 3-fold dilutions), using 6 replicates.
(§5) IC50 values were determined by non-linear regression analysis, after fitting the results to the equation for sigmoidal dose response with variable slope (% activity against log concentration of Compound), using Graphpad Prism software.
A general note: Formazan colour is commonly taken as a measure of viable cells.

Another assay deals with HeLa cells. As to the kind of experiment: HeLa cell inhibition assay (sulphorhodamine B cell viability). The format is cell-based. Particulars: Homo sapiens, IC50 allocated to ranges. The protocol: HeLa cells growing in log phase were harvested and seeded at 1000 cells/well (200 μl final volume) into 96-well tissue culture plates. Following 24 h of cell growth cells were treated with compounds (final concentration of 20 μM). Plates were then re-incubated for a further 72 h before a sulphorhodamine B (SRB) cell viability assay was conducted according to the methodology described by Skehan et al, J. Natl. Canc. Inst., 1990, 82, 1107-1112.
Data were expressed as a percentage inhibition of the control, measured in the absence of inhibitor, as follows:— % inhibition=100−[(S^i/S^o)×100] where S^i is the signal in the presence of inhibitor and S^o is the signal in the presence of DMSO.
as §1

In a further assay the test system is U937 cells. As to the kind of experiment: U937 cell inhibition assay (WST-1 cell viability). The format is cell-based. Conditions: Homo sapiens, U-937; U937 cells; IC50 allocated to ranges; read-out: U937 activity. The protocol: as §2, §3, §4, §5

Turning to `CC(C)(C)OC[C@@H](NCc1ccc(/C=C/C(=O)NO)cc1)C(=O)OC1CCCC1` [Example 20, Cyclopentyl O-tert-butyl-N-{4-[(1E)-3-(hydroxyamino)-3-oxoprop-1-en-1-yl]benzyl}-D-serinate], the IC50 is 101 to 1000 nM in assay [1], 331 to 3300 nM in the assay with HUT78 cells, > 3.3 µM with HeLa cells and < 330 nM in the assay with U937 cells.
Taken in the same sequence, the figures for `O=C(/C=C/c1ccc(CN2CCC(CN[C@H](C(=O)OC3CCCC3)C3CCCCC3)CC2)cc1)NO` [Example 83, Cyclopentyl (2S)-cyclohexyl{[(1-{4-[(1E)-3-(hydroxyamino)-3-oxoprop-1-en-1-yl]benzyl}piperidin-4-yl)methyl]amino}acetate] were 101 to 1000 nM, < 330 nM, 0.331 to 3.3 µM and 331 to 3300 nM.
As to `CC(C)(C)OC[C@H](NCc1ccc(/C=C/C(=O)NO)cc1)C(=O)OC1CCCC1` [Example 16, Cyclopentyl O-tert-butyl-N-{4-[(1E)-3-(hydroxyamino)-3-oxoprop-1-en-1-yl]benzyl}-L-serinate], the IC50 was 101 to 1000 nM in assay [1], 331 to 3300 nM in the assay on HUT78 cells, > 3.3 µM with HeLa cells and 331 to 3300 nM in the assay on U937 cells.
`O=C(/C=C/c1ccc(CN[C@H](C(=O)OCCN2CCOCC2)C2CCCCC2)cn1)NO` [Example 56, 2-Morpholin-4-ylethyl (2S)-cyclohexyl[({6-[(1E)-3-(hydroxyamino)-3-oxoprop-1-en-1-yl]pyridin-3-yl}methyl)amino]acetate]: the IC50 in assay [1] is < 100 nM; in the assay on HUT78 cells it was < 330 nM; with HeLa cells it was 0.331 to 3.3 µM; with U937 cells, < 330 nM.
`O=C(/C=C/c1cccc(CNCC2CCC(CN[C@H](C(=O)OC3CCCC3)C3CCCCC3)CC2)c1)NO` (stereo partly drawn) [Example 79, Cyclopentyl (2S)-cyclohexyl[({4-[({3-[(1E)-3-(hydroxyamino)-3-oxoprop-1-en-1-yl]benzyl}amino)methyl]cyclohexyl}methyl)amino]acetate]: the IC50 was > 1000 nM in assay [1], 331 to 3300 nM with HUT78 cells, 0.331 to 3.3 µM in the assay with HeLa cells and 331 to 3300 nM with U937 cells.
Turning to `O=C(/C=C/c1cccc(S(=O)(=O)N[C@H](C(=O)OC2CCCC2)c2ccccc2)c1)NO` [Example 1, cyclopentyl (2S)-[({3-[(1E)-3-(hydroxyamino)-3-oxoprop-1-en-1-yl]phenyl}sulfonyl)amino](phenyl)acetate], the IC50 in assay [1] is 101 to 1000 nM; with HUT78 cells, > 3300 nM; in the assay on HeLa cells it was > 3.3 µM; with U937 cells, > 3300 nM.
With `CC(C)(C)OC[C@H](NCc1ccc(CNCc2cccc(/C=C/C(=O)NO)c2)cc1)C(=O)OC1CCCC1` [Example 74, Cyclopentyl O-tert-butyl-N-{4-[({3-[(1E)-3-(hydroxyamino)-3-oxoprop-1-en-1-yl]benzyl}amino)methyl]benzyl}-L-serinate], the IC50 was 331 to 3300 nM in the assay on HUT78 cells, > 3.3 µM in the assay on HeLa cells and < 330 nM in the assay on U937 cells.
For the molecule `O=C(/C=C/c1ccc(OCCCN[C@H](C(=O)OC2CCCC2)C2CCCCC2)cc1)NO` [Example 9, Cyclopentyl (2S)-cyclohexyl[(3-{4-[(1E)-3-(hydroxyamino)-3-oxoprop-1-en-1-yl]phenoxy}propyl)amino]acetate], the IC50 in assay [1] was > 1000 nM; with HUT78 cells, > 3300 nM; in the assay on HeLa cells, > 3.3 µM; with U937 cells it was > 3300 nM.
For `CN(C)CCOC(=O)[C@@H](NCc1ccc(/C=C/C(=O)NO)nc1)C1CCCCC1` [Example 57, 2-(Dimethylamino)ethyl (2S)-cyclohexyl[({6-[(1E)-3-(hydroxyamino)-3-oxoprop-1-en-1-yl]pyridin-3-yl}methyl)amino]acetate], the IC50 in assay [1] was < 100 nM; in the assay on HUT78 cells, < 330 nM; in the assay on HeLa cells, > 3.3 µM; in the assay with U937 cells, < 330 nM.
On to `COC(=O)[C@H](Cc1c[nH]c2ccccc12)NCc1ccc(/C=C/C(=O)NO)cc1` [Example 29, Methyl N-{4-[(1E)-3-(hydroxyamino)-3-oxoprop-1-en-1-yl]benzyl}-L-tryptophanate], for which the results for the IC50 in the assay on HUT78 cells, with HeLa cells and with U937 cells were 331 to 3300 nM, 0.331 to 3.3 µM and 331 to 3300 nM, respectively.
Consider `CC(C)C[C@H](NCCc1ccc(/C=C/C(=O)NO)cc1)C(=O)OC(C)(C)C` [Example 87, tert-Butyl N-(2-{4-[(1E)-3-(hydroxyamino)-3-oxoprop-1-en-1-yl]phenyl}ethyl)-L-leucinate], for which the IC50 in assay [1] was in the range of 101 to 1000 nM; with HUT78 cells, 331 to 3300 nM; with U937 cells, 331 to 3300 nM.
For the molecule `CC(C)C[C@H](NCc1ccc(CCC(=O)NO)cn1)C(=O)OC(C)(C)C` [Example 71, tert-Butyl N-({5-[3-(hydroxyamino)-3-oxopropyl]pyridin-2-yl}methyl)-L-leucinate], the IC50 is > 1000 nM in assay [1], > 3300 nM in the assay with HUT78 cells and 331 to 3300 nM in the assay on U937 cells.
On the same counts, the results for `O=C(/C=C/c1ccc(CN[C@@H](C(=O)OC2CCCC2)c2ccccc2)cc1)NO` [Example 22, Cyclopentyl (2R)-({4-[(1E)-3-(hydroxyamino)-3-oxoprop-1-en-1-yl]benzyl}amino)(phenyl)acetate] are 101 to 1000 nM, 331 to 3300 nM and 331 to 3300 nM.
Turning to `CC(C)C[C@H](NCc1ccc(CCC(=O)NO)cc1)C(=O)OC1CCCC1` [Example 34, Cyclopentyl N-{4-[3-(hydroxyamino)-3-oxopropyl]benzyl}-L-leucinate], the IC50 was 101 to 1000 nM in assay [1], < 330 nM with HUT78 cells and < 330 nM with U937 cells.
`O=C(CCc1ccc(CN[C@H](C(=O)OC2CCCC2)c2ccccc2)cn1)NO` [Example 65, Cyclopentyl (2S)-[({6-[3-(hydroxyamino)-3-oxopropyl]pyridin-3-yl}methyl)amino](phenyl)acetate]: the results for the IC50 (in assay [1]; in the assay with HUT78 cells; in the assay on U937 cells) were 101 to 1000 nM, 331 to 3300 nM and < 330 nM, respectively.
For the molecule `O=C(CCc1ccc(CNCc2ccc(CN[C@H](C(=O)OC3CCCC3)C3CCCCC3)cc2)cc1)NO` [Example 77, Cyclopentyl (2S)-cyclohexyl({4-[({4-[3-(hydroxyamino)-3-oxopropyl]benzyl}amino)methyl]benzyl}amino)acetate], the values for the IC50 (in assay [1]; with HUT78 cells; in the assay on U937 cells) were 101 to 1000 nM, 331 to 3300 nM and < 330 nM, respectively.
For the molecule `O=C(/C=C/c1ccc(CN[C@H](C(=O)OCCN2CCOCC2)C2CCCCC2)cc1)NO` [Example 30, 2-Morpholin-4-ylethyl (2S)-cyclohexyl({4-[(1E)-3-(hydroxyamino)-3-oxoprop-1-en-1-yl]benzyl}amino)acetate], the figures for the IC50 (in assay [1]; with HUT78 cells; in the assay with U937 cells) were 101 to 1000 nM, < 330 nM and < 330 nM, respectively.
Consider `CC(C)(C)OC(=O)[C@@H](NCc1ccc(/C=C/C(=O)NO)nc1)C1CCCCC1` [Example 59, tert-Butyl (2S)-cyclohexyl[({6-[(1E)-3-(hydroxyamino)-3-oxoprop-1-en-1-yl]pyridin-3-yl}methyl)amino]acetate], for which the IC50 in assay [1] is < 100 nM; in the assay with HUT78 cells, < 330 nM; in the assay with U937 cells, < 330 nM.
Take `CC(C)C[C@H](NC(C)c1ccc(CCC(=O)NO)cc1)C(=O)OC(C)(C)C` (stereo partly drawn) [Example 86, tert-Butyl N-(1-{4-[3-(hydroxyamino)-3-oxopropyl]phenyl}ethyl)-L-leucinate]: the IC50 in assay [1] is 101 to 1000 nM; in the assay on HUT78 cells, 331 to 3300 nM; in the assay on U937 cells, < 330 nM.
Taken in the same sequence, the figures for `CC(C)[C@H](NCc1ccc(CCC(=O)NO)cc1)C(=O)OC(C)(C)C` [Example 47, tert-Butyl N-{4-[3-(hydroxyamino)-3-oxopropyl]benzyl}-L-valinate] were > 1000 nM, 331 to 3300 nM and > 3300 nM.
